Among the test systems are LOX IMVI melanoma; SW-620 colon; PC-3 prostate; 786-0 renal; RPMI-8226 leukemia; SN12C renal; HOP-62 NSCLC; KM12 colon; ACHN renal; UACC-62 melanoma.
Holding throughout (assay): NCI tumour cell line growth inhibition, 48 h

SMILES strings stand for the structures.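 Briefly, cells in 96-well plates were exposed to five compound concentrations for 48 h, and endpoints were estimated by linear interpolation. Here, GI50 denotes the concentration required for 50% inhibition of growth. TGI denotes the concentration required for complete inhibition of growth.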

For the molecule `COc1ccc(-c2csc3c2-n2cccc2C3=O)cc1`, the GI50 is 34.9 nM in the test on LOX IMVI melanoma; 5.6 nM in the test on SW-620 colon; 31.7 nM in the test on PC-3 prostate; 49.7 nM in the test on 786-0 renal; 25.9 nM in the test on RPMI-8226 leukemia; 68.1 nM with SN12C renal. In addition, the GI50 with HOP-62 NSCLC was 98.6 nM; in the test on KM12 colon, 13.3 nM; in the test with UACC-62 melanoma, 232 nM. The TGI was greater than 100 µM in the test with LOX IMVI melanoma; greater than 100 µM with SW-620 colon; greater than 52.1 µM in the test on PC-3 prostate; greater than 100 µM with 786-0 renal; greater than 100 µM with SN12C renal; greater than 72 µM with HOP-62 NSCLC. Moreover, the TGI with ACHN renal is greater than 90.9 µM; with UACC-62 melanoma, greater than 100 µM.
With `CS(=O)(=O)OCCN(CCOS(C)(=O)=O)c1ccc(C=Nc2ccc(-c3csc(COc4ccccc4)n3)cc2)cc1`, the TGI in the test on LOX IMVI melanoma was determined as 18.1 µM; with SW-620 colon, 52 µM; in the test with PC-3 prostate it was 28.2 µM; in the test on 786-0 renal it was 4.52 µM; in the test with RPMI-8226 leukemia, 67.5 µM; with SN12C renal, 18.7 µM. Also, the TGI with HOP-62 NSCLC amounted to 10.1 µM; with KM12 colon, 19.8 µM; in the test with ACHN renal, 2.32 µM; in the test with UACC-62 melanoma it was 19.8 µM.
On to `CC1(C)N=C(N)N=C(N)N1c1ccc(OCCCNC(=O)Nc2ccc(S(=O)(=O)F)cc2)c(Cl)c1`, for which the GI50 in the test with LOX IMVI melanoma was 120 nM; with SW-620 colon, 77.8 nM; in the test on PC-3 prostate it was 165 nM; in the test with 786-0 renal, 417 nM; in the test with RPMI-8226 leukemia, 1640 nM; with SN12C renal, 111 nM. The GI50 was 820 nM in the test on HOP-62 NSCLC, 504 nM in the test on KM12 colon, 4.45 µM in the test with ACHN renal and 268 nM in the test on UACC-62 melanoma. The TGI in the test with LOX IMVI melanoma is greater than 100 µM; in the test with SW-620 colon, greater than 100 µM; in the test with PC-3 prostate, greater than 73 µM; in the test on 786-0 renal, greater than 100 µM; in the test with RPMI-8226 leukemia, greater than 75 µM; in the test on SN12C renal, greater than 100 µM. Further, the TGI in the test on HOP-62 NSCLC, in the test with KM12 colon, with ACHN renal and with UACC-62 melanoma was greater than 100 µM throughout.
Regarding `CC(=O)/C(=C\c1ccc(Cl)cc1)c1ccccc1`, the GI50 in the test with LOX IMVI melanoma was 123 nM; with SW-620 colon, 44.5 nM; in the test on PC-3 prostate, 85.2 nM; with 786-0 renal it was 128 nM; in the test on RPMI-8226 leukemia, 133 nM; in the test with SN12C renal, 541 nM. Further, the GI50 in the test on HOP-62 NSCLC was 179 nM; with KM12 colon it was 54 nM; in the test with ACHN renal, 0.548 µM; with UACC-62 melanoma, 47.3 nM. Moreover, the TGI was 16.2 µM in the test with LOX IMVI melanoma; greater than 64.6 µM in the test on SW-620 colon; greater than 100 µM in the test with PC-3 prostate; greater than 100 µM in the test with 786-0 renal; 25.9 µM in the test with RPMI-8226 leukemia; greater than 100 µM with SN12C renal. Further, the TGI was greater than 100 µM with HOP-62 NSCLC, greater than 100 µM with KM12 colon, greater than 70 µM with ACHN renal and greater than 93.8 µM in the test with UACC-62 melanoma.
With `O=c1c2ccccc2nc(-c2cccc([N+](=O)[O-])c2)n1O`, the TGI is greater than 100 µM in the test on LOX IMVI melanoma; greater than 100 µM in the test on SW-620 colon; 98.7 µM in the test on PC-3 prostate; greater than 100 µM in the test with 786-0 renal; greater than 33.7 µM with RPMI-8226 leukemia; greater than 100 µM in the test on SN12C renal. Further, the TGI in the test with HOP-62 NSCLC, with KM12 colon, with ACHN renal and in the test on UACC-62 melanoma was greater than 100 µM in each case.
`Cn1cc(C2=C(c3ccsc3)C(=O)NC2=O)c2ccccc21`: the GI50 in the test on LOX IMVI melanoma, with SW-620 colon, with PC-3 prostate, with 786-0 renal, in the test with RPMI-8226 leukemia and in the test on SN12C renal was greater than 25000 nM throughout. Moreover, the GI50 in the test on HOP-62 NSCLC is greater than 25000 nM; in the test on KM12 colon it was greater than 25000 nM; in the test on ACHN renal, greater than 25 µM; in the test with UACC-62 melanoma, greater than 25000 nM. Moreover, the TGI in the test on LOX IMVI melanoma, with SW-620 colon, in the test with PC-3 prostate, in the test with 786-0 renal, with RPMI-8226 leukemia and with SN12C renal was greater than 25 µM in each case. For the same molecule, the TGI in the test on HOP-62 NSCLC, with KM12 colon, with ACHN renal and with UACC-62 melanoma was greater than 25 µM throughout.
On to `COc1cc(/C=C/C(=O)c2cccc(-n3cc(-c4ccccc4)[nH]c3=O)c2)cc(OC)c1OC`, for which the GI50 is 489 nM in the test with LOX IMVI melanoma; 390 nM in the test with SW-620 colon; 3260 nM with PC-3 prostate; 1380 nM in the test on 786-0 renal; 626 nM in the test with RPMI-8226 leukemia; 2090 nM in the test with SN12C renal. For the same molecule, the GI50 is 4120 nM in the test on HOP-62 NSCLC, 1370 nM in the test with KM12 colon, 1.6 µM in the test with ACHN renal and 1520 nM in the test on UACC-62 melanoma. Also, the TGI is 1.67 µM in the test on LOX IMVI melanoma; 1.39 µM in the test with SW-620 colon; 20.7 µM in the test on PC-3 prostate; 2.97 µM with 786-0 renal; greater than 100 µM with RPMI-8226 leukemia; 10.7 µM in the test on SN12C renal. Further, the TGI in the test on HOP-62 NSCLC stood at 13.6 µM; with KM12 colon, 2.66 µM; in the test on ACHN renal, 3.21 µM; in the test with UACC-62 melanoma it was 2.98 µM.
Consider `O=c1[nH]c2ccccc2n1C1CCNCC1`, for which the GI50 in the test on LOX IMVI melanoma, with SW-620 colon, in the test on PC-3 prostate, in the test on 786-0 renal, in the test on RPMI-8226 leukemia and in the test on SN12C renal was greater than 100000 nM throughout. The GI50 in the test with HOP-62 NSCLC is greater than 100000 nM; in the test on KM12 colon it was greater than 100000 nM; in the test on ACHN renal, greater than 100 µM; in the test on UACC-62 melanoma it was greater than 100000 nM. Also, the TGI in the test with LOX IMVI melanoma, with SW-620 colon, with PC-3 prostate, in the test with 786-0 renal, in the test with RPMI-8226 leukemia and in the test with SN12C renal was greater than 100 µM each time. Moreover, the TGI in the test on HOP-62 NSCLC, with KM12 colon, in the test with ACHN renal and in the test on UACC-62 melanoma was greater than 100 µM throughout.

The values above are taken from PubChem BioAssay (NCI).
